Test results published in patent US6489358B2, “Pharmaceutical compositions containing mupirocin” (Agis Industries (1983) Ltd., priority 2000, dated 2002).

Legend:
[1] = Solubility of 2% solutions (calculated as free acid) in pharmaceutically acceptable hydrophilic solvents; format: physicochemical
Excerpt: The following table presents the solubility of mupirocin calcium amorphous, compared to the solubility of the crystalline form, in various pharmaceutically acceptable hydrophilic solvents. We prepared 2% solutions (calculated as free acid), similar to the commercially available products.

[2] = Stability of 2% solution on heating (Δ % impurities); format: physicochemical
Protocol: The stability of Mupirocin Calcium amorphous in various acceptable pharmaceutical solvents was tested by heating a 2% solution to 80° C. for 24 hours or by heating it to 40° for 1 month. Bactroban cream was used as a reference.

[3] = from U.S Pat. No. 4,916,155; cited from earlier work
[4] = 2% solution (calculated as free acid) in Glycerine
[5] = 2% solution (calculated as free acid) in Hexylene glycol
[6] = 2% solution in Propylene Glycol

Row | Solubility (After heating for 30 min. at 70° C.) [1, 4] | Solubility (at room temperature) [1, 4] | Solubility (at room temperature) [1, 5] | Δ % impurities (after heating for 1 month at 40° C.) ([2]; 2% solution in Glycerine) | Δ % impurities (after heating for 24 h at 80° C.) ([2]; 2% solution in Glycerine) | Δ % impurities (after heating for 1 month at 40° C.) ([2]; 2% solution in Hexylene Glycol) | Δ % impurities (after heating for 24 h at 80° C.) ([2]; 2% solution in Hexylene Glycol) | Δ % impurities (after heating for 1 month at 40° C.) [2, 6] | Δ % impurities (after heating for 24 h at 80° C.) [2, 6] | Δ % impurities (after heating for 1 month at 40° C.) ([2]; 2% solution in Water) | Δ % impurities (after heating for 24 h at 80° C.) ([2]; 2% solution in Water) | Stability of the solution ([2]; solution in hexylene glycol) | Solubility (After heating for 30 min. at 70° C.) ([1]; 2% solution (calculated as free acid) in Glycerine, calcium dihydrate) | Solubility (After heating for 30 min. at 70° C.) [1, 5] | Solubility (at room temperature) ([1]; 2% solution (calculated as free acid) in Hexylene glycol, calcium dihydrate) | Solubility (at room temperature) ([1]; 2% solution (calculated as free acid) in Propylene glycol, calcium dihydrate) | Solubility (After heating for 30 min. at 70° C.) ([1]; 2% solution (calculated as free acid) in Water) | Solubility (at room temperature) ([1]; 2% solution (calculated as free acid) in Water, calcium dihydrate) | SMILES | Solubility in hydrophilic solvents compared with the crystalline form ([1]; hydrophilic solvents) | Solubility in water [3]
1 | Soluble | Not soluble | Soluble | 29.2% | 29.4% | 1.5% | 2% | 7.5% | 8.7% | 36.7% | 36.4% | good stability |  |  |  |  |  |  | C/C(=C\C(=O)OCCCCCCCCC(=O)[O-])C[C@@H]1OC[C@H](C[C@@H]2O[C@H]2[C@@H](C)[C@H](C)O)[C@@H](O)[C@H]1O.C/C(=C\C(=O)OCCCCCCCCC(=O)[O-])C[C@@H]1OC[C@H](C[C@@H]2O[C@H]2[C@@H](C)[C@H](C)O)[C@@H](O)[C@H]1O.O.O.[Ca+2] [Mupirocin Ca amorphous, amorphous calcium mupirocin] | much more soluble in hydrophilic solvents | 
2 |  |  |  |  |  |  |  |  |  |  |  |  | Partially soluble | Not soluble | Not soluble | Soluble | Not soluble | Not soluble | C/C(=C\C(=O)OCCCCCCCCC(=O)[O-])C[C@@H]1OC[C@H](C[C@@H]2O[C@H]2[C@@H](C)[C@H](C)O)[C@@H](O)[C@H]1O.C/C(=C\C(=O)OCCCCCCCCC(=O)[O-])C[C@@H]1OC[C@H](C[C@@H]2O[C@H]2[C@@H](C)[C@H](C)O)[C@@H](O)[C@H]1O.O.O.[Ca+2] [Mupirocin Ca crystalline, crystalline Mupirocin calcium dihydrate] |  | poor solubility in water
